Measured values published in patent publication EP1561465A2, “Methods of use of fluoroquinolone compounds against bacteria” (LG Life Sciences, Ltd., priority 1999, dated 2001).
≈ marks a conversion by molar mass, not a printed value. Where two headings read alike, the source gives them in different places.

Key:
Format in all cases: cell-based
Aeromonas spp. = assay: MIC by agar dilution (NCCLS M7-A4), 288 enteropathogenic isolates, gemifloxacin and 15 other antimicrobials; conditions: Aeromonas spp. N= 16
Enterococcus faecalis = assay: MIC by agar macrodilution (NCCLS), 373 Gram positive isolates, Athens 1998
Staphylococcus aureus = assay: as above; conditions: Methicillin-susceptible Staphylococcus aureus (n = 85)
Klebsiella pneumoniae [1] = assay: MIC by NCCLS reference broth microdilution, 450 respiratory tract pathogens; conditions: for MIC50 / MIC90: Klebsiella pneumoniae
Morganella morganii = assay: MIC by NCCLS broth microdilution, 1100 Japanese clinical isolates 1997-1998; conditions: Morganella morganii (n=40)
Streptococcus pneumoniae [2] = assay: MIC by broth microdilution (NCCLS), dried MicroScan panels, clinical isolates 1998-1999; conditions: for MIC90: Streptococcus pneumoniae
Klebsiella pneumoniae [3] = assay: MIC by agar dilution (NCCLS), 322 nosocomial Gram negative isolates, Athens 1998; conditions: n = 56 isolates
Streptococcus pneumoniae [4] = assay: MIC by E-test (broth microdilution for gemifloxacin), 107 pneumococcal carrier isolates, Athens 1998; conditions: for MIC Range: in µg/mL (unit assumed); for MIC50 / MIC90: Streptococcus pneumoniae; for MIC90: read-out: MIC90
Procedure: Susceptibility testing was performed by agar dilution or epsilometer method (E-test), as recommended by the NCCLS. […] The susceptibility profiles of the strains were assessed using the Epsilometer method (E-test). The isolates were subdivided into two groups according to their penicillin susceptibility patterns (penicillin-susceptible and penicillin-intermediate.

Streptococcus pneumoniae [5] = assay: MIC by agar dilution (NCCLS), 411 isolates Buenos Aires 1998-99; conditions: for MIC90 / MIC: Streptococcus pneumoniae; for MIC: Ciprofloxacin-resistant S. pneumoniae, read-out: MIC
Proteus mirabilis = assay: MIC by NCCLS broth microdilution, 1100 Japanese clinical isolates 1997-1998; conditions: Proteus mirabilis (n=30)
Shigella spp. = assay: MIC by agar dilution (NCCLS M7-A4), 288 enteropathogenic isolates, gemifloxacin and 15 other antimicrobials; conditions: Shigella spp. N= 21
Method in brief: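 Agar dilution with ~10^4 cfu/spot inoculum; plates incubated aerobically at 35 °C for 24 h, except C. jejuni, held microaerophilically for 48 h. MIC taken as lowest antibiotic concentration with no visible growth.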

[6] = test system: Streptococcus pneumoniae and Haemophilus influenzae; assay: MIC by broth microdilution (NCCLS), all isolates pooled
Enterococcus faecium = assay: MIC by agar macrodilution (NCCLS), 373 Gram positive isolates, Athens 1998
Pseudomonas aeruginosa = assay: MIC by agar dilution (NCCLS), 322 nosocomial Gram negative isolates, Athens 1998; conditions: n = 57 isolates
Serratia marcescens = assay: MIC by NCCLS broth microdilution, 1100 Japanese clinical isolates 1997-1998; conditions: Serratia marcescens (n=30)
Haemophilus influenzae = assay: MIC by broth microdilution (NCCLS), dried MicroScan panels, clinical isolates 1998-1999; conditions: for MIC90: Haemophilus influenzae
[7] = extended spectrum β-lactamase negative (n = 30)
[8] = extended spectrum β-lactamase positive (n = 20)
[9] = Streptococcus pneumoniae (302 isolates)
[10] = Penicillin-intermediate S. pneumoniae (n = 24), E-test
[11] = Penicillin-susceptible S. pneumoniae (n = 107), E-test
[12] = Haemophilus influenzae (300 isolates)

With `N[C@@H]1[C@H]2CN(c3nc4c(cc3F)c(=O)c(C(=O)O)cn4-c3ccc(F)cc3F)C[C@@H]12` [Trovafloxacin, trovafloxacin] the “MIC (mg/L) Range” value (Aeromonas spp.) was at most 0.015 to 0.25 mg/L, the MIC (Aeromonas spp.; read-out: MIC (mg/L) 50%) was at most 0.015 mg/L and the MIC (Aeromonas spp.; read-out: MIC (mg/L) 90%) was 0.03 mg/L (≈ 0.0721 µM). The “MIC distribution (µg/ml) 0.06” value (Enterococcus faecalis) was 1, the “MIC distribution (µg/ml) 0.125” value (Enterococcus faecalis) was 0 and the “MIC distribution (µg/ml) 0.25” value (Enterococcus faecalis) was 6. The “MIC distribution (µg/ml) 0.5” value (Enterococcus faecalis) was 21, the “MIC distribution (µg/ml) 1” value (Enterococcus faecalis) was 23 and the “MIC distribution (µg/ml) 2” value (Enterococcus faecalis) was 6. For the same molecule, the “MIC distribution (µg/ml) 4” value (Enterococcus faecalis) was 0, the “MIC distribution (µg/ml) 8” value (Enterococcus faecalis) was 3 and the “MIC distribution (µg/ml) 16” value (Enterococcus faecalis) was 3. The “MIC distribution (µg/ml) ≤0.015” value (Enterococcus faecalis) was 0, the “MIC distribution (µg/ml) ≥32” value (Enterococcus faecalis) was 17 and the MIC50 (Enterococcus faecalis; Enterococcus faecalis, n = 81 isolates, read-out: MIC50) was 1 µg/mL (≈ 2.4 µM). The MIC90 (Enterococcus faecalis; Enterococcus faecalis, n = 81 isolates, read-out: MIC90) was at least 32 µg/mL, the “MIC Range” value (Staphylococcus aureus) was at most 0.03 to 2 µg/mL and the MIC50 (Staphylococcus aureus; read-out: MIC50) was 0.06 µg/mL (≈ 0.144 µM). The MIC90 (Staphylococcus aureus; read-out: MIC90) was 0.125 µg/mL (≈ 0.3 µM), the “MIC Range” value (Klebsiella pneumoniae [1]; Klebsiella pneumoniae (n = 50)) was at most 0.0075 to 0.5 µg/mL and the MIC50 (Klebsiella pneumoniae [1]; Klebsiella pneumoniae (n = 50)) was 0.06 µg/mL (≈ 0.144 µM). It also gave an MIC90 (Klebsiella pneumoniae [1]; Klebsiella pneumoniae (n = 50)) of 0.5 µg/mL (≈ 1.2 µM), an MIC50 (Klebsiella pneumoniae [1]; [7]) of 0.06 µg/mL (≈ 0.144 µM) and an MIC90 (Klebsiella pneumoniae [1]; [7]) of 0.12 µg/mL (≈ 0.288 µM). The MIC50 (Klebsiella pneumoniae [1]; [8]) was 0.5 µg/mL (≈ 1.2 µM), the MIC90 (Klebsiella pneumoniae [1]; [8]) was 0.5 µg/mL (≈ 1.2 µM) and the “MIC Range” value (Klebsiella pneumoniae [1]; [7]) was at most 0.0075 to 0.015 µg/mL. The “MIC Range” value (Klebsiella pneumoniae [1]; [8]) was 0.06 to 0.5 µg/mL, the “MIC Range” value (Morganella morganii) was 0.063 to 32 µg/mL and the MIC50 (Morganella morganii; read-out: MIC50) was 0.25 µg/mL (≈ 0.6 µM). The MIC90 (Morganella morganii; read-out: MIC90) was 1 µg/mL (≈ 2.4 µM), the MIC50 (Streptococcus pneumoniae [2]; [9]) was 0.12 µg/mL (≈ 0.288 µM) and the “MIC Range” value (Streptococcus pneumoniae [2]; [9]) was at most 0.015 to 1 µg/mL. The MIC90 (Streptococcus pneumoniae [2]; Erythromycin-resistant (86)) was 0.25 µg/mL (≈ 0.6 µM), the MIC90 (Streptococcus pneumoniae [2]; Erythromycin-sensitive (216)) was 0.25 µg/mL (≈ 0.6 µM) and the MIC90 (Streptococcus pneumoniae [2]; Penicillin-intermediate (124)) was 0.25 µg/mL (≈ 0.6 µM). For the same molecule, the MIC90 (Streptococcus pneumoniae [2]; Penicillin-resistant (80)) was 0.25 µg/mL (≈ 0.6 µM), the MIC90 (Streptococcus pneumoniae [2]; Penicillin-sensitive (98)) was 0.25 µg/mL (≈ 0.6 µM) and the MIC90 (Streptococcus pneumoniae [2]; [9]) was 0.25 µg/mL (≈ 0.6 µM). The MIC50 (Klebsiella pneumoniae [3]; Klebsiella pneumoniae) was 0.125 µg/mL (≈ 0.3 µM), the MIC90 (Klebsiella pneumoniae [3]; Klebsiella pneumoniae) was 1 µg/mL (≈ 2.4 µM) and the “MIC Range” value (Klebsiella pneumoniae [3]) was at most 0.03 to 16 µg/mL. For the same molecule, the MIC Range (Streptococcus pneumoniae [4]; [10]) was 0.003-1, the MIC Range (Streptococcus pneumoniae [4]; [11]) was 0.008-1 and the MIC50 (Streptococcus pneumoniae [4]) was 0.125 µg/mL (≈ 0.3 µM). For the same molecule, the MIC90 (Streptococcus pneumoniae [4]; [10]) was 0.38 µg/mL (≈ 0.913 µM), the MIC50 (Streptococcus pneumoniae [4]; Penicillin-susceptible S. pneumoniae (n = 107), E-test, read-out: MIC50) was 0.094 µg/mL (≈ 0.226 µM) and the MIC90 (Streptococcus pneumoniae [4]; [11]) was 0.19 µg/mL (≈ 0.456 µM). The MIC90 (Streptococcus pneumoniae [5]) was 0.125 µg/mL (≈ 0.3 µM), the “MIC Range” value (Streptococcus pneumoniae [5]; Streptococcus pneumoniae (n = 90)) was 0.016 to 1 µg/mL and the MIC (Streptococcus pneumoniae [5]; Strain 1) was 0.25 µg/mL (≈ 0.6 µM). For the same molecule, the MIC (Streptococcus pneumoniae [5]; Strain 2) was 0.025 µg/mL (≈ 0.06 µM), the MIC (Streptococcus pneumoniae [5]; Strain 3) was 1 µg/mL (≈ 2.4 µM) and the MIC (Streptococcus pneumoniae [5]; Strain 4) was 1 µg/mL (≈ 2.4 µM). It also gave an MIC90 (Streptococcus pneumoniae [5]; S. pneumoniae, Penicillin intermediate (n = 17), read-out: MIC90) of 0.25 µg/mL (≈ 0.6 µM), an MIC90 (Streptococcus pneumoniae [5]; S. pneumoniae, Penicillin susceptible (n = 69), read-out: MIC90) of 0.25 µg/mL (≈ 0.6 µM) and an MIC90 (Streptococcus pneumoniae [5]; Streptococcus pneumoniae (n = 90), read-out: MIC90) of 0.25 µg/mL (≈ 0.6 µM). For the same molecule, the “MIC Range” value (Proteus mirabilis) was 0.063 to 16 µg/mL, the MIC50 (Proteus mirabilis; read-out: MIC50) was 0.25 µg/mL (≈ 0.6 µM) and the MIC90 (Proteus mirabilis; read-out: MIC90) was 0.5 µg/mL (≈ 1.2 µM). The MIC (Shigella spp.; 24 h, read-out: MIC (mg/L) Range) was at most 0.015 mg/L, the MIC (Shigella spp.; read-out: MIC (mg/L) 50%) was at most 0.015 mg/L and the MIC (Shigella spp.; read-out: MIC (mg/L) 90%) was at most 0.015 mg/L. For the same molecule, the MIC90 ([6]; all (380) isolates tested (235 S. pneumoniae, 145 H. influenzae)) was 0.12 µg/mL (≈ 0.288 µM), the MIC90 ([6]; all isolates tested (602)) was 0.25 µg/mL (≈ 0.6 µM) and the “MIC distribution (µg/ml) 0.03” value (Enterococcus faecium) was 0. For the same molecule, the “MIC distribution (µg/ml) 0.06” value (Enterococcus faecium) was 0, the “MIC distribution (µg/ml) 0.125” value (Enterococcus faecium) was 0 and the “MIC distribution (µg/ml) 0.25” value (Enterococcus faecium) was 1. The “MIC distribution (µg/ml) 0.5” value (Enterococcus faecium) was 6, the “MIC distribution (µg/ml) 1” value (Enterococcus faecium) was 2 and the “MIC distribution (µg/ml) 2” value (Enterococcus faecium) was 0. For the same molecule, the “MIC distribution (µg/ml) 4” value (Enterococcus faecium) was 0, the “MIC distribution (µg/ml) 8” value (Enterococcus faecium) was 1 and the “MIC distribution (µg/ml) 16” value (Enterococcus faecium) was 0. The “MIC distribution (µg/ml) ≤0.015” value (Enterococcus faecium) was 0, the “MIC distribution (µg/ml) ≥32” value (Enterococcus faecium) was 4 and the MIC50 (Enterococcus faecium; Enterococcus faecium, n = 14 isolates, read-out: MIC50) was 0.5 µg/mL (≈ 1.2 µM). For the same molecule, the MIC90 (Enterococcus faecium; Enterococcus faecium, n = 14 isolates, read-out: MIC90) was at least 32 µg/mL, the MIC50 (Pseudomonas aeruginosa) was 2 µg/mL (≈ 4.8 µM) and the MIC90 (Pseudomonas aeruginosa) was over 64 µg/mL. The MIC90 (Serratia marcescens) was 2 µg/mL (≈ 4.8 µM), the MIC50 (Serratia marcescens; read-out: MIC50) was 0.25 µg/mL (≈ 0.6 µM) and the MIC50 (Haemophilus influenzae; [12]) was at most 0.015 µg/mL. The “MIC Range” value (Haemophilus influenzae; [12]) was at most 0.015 to 0.25 µg/mL, the MIC90 (Haemophilus influenzae; [12]) was at most 0.015 µg/mL and the MIC90 (Haemophilus influenzae; β-lactamase negative (234)) was at most 0.015 µg/mL. It also gave an MIC90 (Haemophilus influenzae; β-lactamase positive (66)) of 0.03 µg/mL (≈ 0.0721 µM).
